Experimental data taken from ChEMBL document CHEMBL1201862, “PubChem BioAssay data set” (2004).
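Step 1: Grow cells in 96-well plates. Step 2: Expose to compound for 48 hours at 5 concentrations. Step 3: Interpolate endpoints linearly; if unreached, use highest concentration. GI50 is the concentration that inhibits growth by half.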 Activity calls are given as the source filed them. Rule as the data show it: active = GI50 up to about 1.1 µM and inactive = higher.

Columns and labels:
Assay in all cases: growth of human tumour cells (NCI), 48 h
786-0 = tested on: 786-0
A498 = tested on: A498
CAKI-1 = tested on: CAKI-1
CCRF-CEM = tested on: CCRF-CEM
HCC 2998 = tested on: HCC 2998
HCT-15 = tested on: HCT-15
HT-29 = tested on: HT-29
MDA-N = tested on: MDA-N
NCI-H226 = tested on: NCI-H226
OVCAR-3 = tested on: OVCAR-3
OVCAR-8 = tested on: OVCAR-8
RXF 393 = tested on: RXF 393
SF-539 = tested on: SF-539
SK-MEL-5 = tested on: SK-MEL-5
SN12C = tested on: SN12C
SNB-75 = tested on: SNB-75
SR = tested on: SR
U-251 = tested on: U-251
UO-31 = tested on: UO-31

| Structure (SMILES) | GI50 (786-0) | GI50 (A498) | GI50 (CAKI-1) | GI50 (CCRF-CEM) | GI50 (HCC 2998) | GI50 (HCT-15) | GI50 (HT-29) | GI50 (MDA-N) | GI50 (NCI-H226) | GI50 (OVCAR-3) | GI50 (OVCAR-8) | GI50 (RXF 393) | GI50 (SF-539) | GI50 (SK-MEL-5) | GI50 (SN12C) | GI50 (SNB-75) | GI50 (SR) | GI50 (U-251) | GI50 (UO-31) |
| --- | --- | --- | --- | --- | --- | --- | --- | --- | --- | --- | --- | --- | --- | --- | --- | --- | --- | --- | --- |
| Cc1cccc2c1c(=O)c1c(O)cc(O)cc1n2C | > 100 µM (inactive) | 59 µM (inactive) | > 100 µM (inactive) | > 100 µM (inactive) | > 100 µM (inactive) | > 100 µM | 72.3 µM (inactive) | > 100 µM (inactive) | > 100 µM (inactive) | > 100 µM (inactive) | > 100 µM (inactive) | 59.8 µM (inactive) | > 100 µM (inactive) | 34.2 µM (inactive) | > 100 µM (inactive) | 39.4 µM (inactive) | > 100 µM (inactive) | > 100 µM (inactive) | – |
| CC12CCC(=O)C=C1CCC1C2C(O)CC2(C)C(c3csc(N)n3)CCC12.O=S(=O)(O)c1ccc(Br)cc1 (stereo not drawn) | > 100 µM (inactive) | > 100 µM (inactive) | > 100 µM (inactive) | < 0.01 µM (active) | > 100 µM (inactive) | > 100 µM | > 100 µM (inactive) | > 100 µM (inactive) | > 100 µM (inactive) | > 100 µM (inactive) | > 100 µM (inactive) | > 100 µM (inactive) | > 100 µM (inactive) | > 100 µM (inactive) | > 100 µM (inactive) | > 100 µM (inactive) | > 100 µM (inactive) | > 100 µM (inactive) | > 100 µM (inactive) |
| COc1ccc(-c2cc(-c3ccc(Nc4ccnc5cc(C(F)(F)F)ccc45)cc3)[nH]c(=O)c2C#N)c2ccccc12 | 21 µM (inactive) | > 43 µM (inactive) | > 100 µM (inactive) | > 20.9 µM (inactive) | > 100 µM (inactive) | > 100 µM | > 25.7 µM (inactive) | > 38.4 µM (inactive) | > 55.3 µM (inactive) | 38.7 µM (inactive) | > 46.3 µM (inactive) | 15.2 µM (inactive) | 16.6 µM (inactive) | > 100 µM (inactive) | > 100 µM (inactive) | 11.2 µM (inactive) | 12.6 µM (inactive) | 10.2 µM (inactive) | > 35.6 µM (inactive) |
| O=S1(=O)c2ccccc2C(Nc2ccccc2)N1c1ccccc1 (stereo not drawn) | > 100 µM (inactive) | > 100 µM (inactive) | > 100 µM (inactive) | 63.4 µM (inactive) | > 100 µM (inactive) | 48 µM | > 100 µM (inactive) | > 100 µM (inactive) | > 100 µM (inactive) | > 100 µM (inactive) | > 100 µM (inactive) | > 100 µM (inactive) | > 100 µM (inactive) | > 100 µM (inactive) | > 100 µM (inactive) | > 100 µM (inactive) | 83.8 µM (inactive) | 61 µM (inactive) | 68.1 µM (inactive) |
| COn1cc(C=O)c2ccccc21 | > 67 µM (inactive) | 1.95 µM (inactive) | 28.7 µM (inactive) | – | 21.8 µM (inactive) | > 70.5 µM | > 56.6 µM (inactive) | 23.6 µM (inactive) | > 20.2 µM (inactive) | 36.6 µM (inactive) | > 93.8 µM (inactive) | 45.9 µM (inactive) | > 45.6 µM (inactive) | 28.1 µM (inactive) | > 80.4 µM (inactive) | 33.7 µM (inactive) | 26.4 µM (inactive) | 55.6 µM (inactive) | 61.2 µM (inactive) |
| CC1(C)CC2=C(Sc3ccccc3N2)C(=O)C1C(=O)C(=O)Nc1cc(Cl)ccc1Cl (stereo not drawn) | > 100 µM (inactive) | > 100 µM (inactive) | > 100 µM (inactive) | > 100 µM (inactive) | > 100 µM (inactive) | > 100 µM | 77.6 µM (inactive) | > 100 µM (inactive) | > 100 µM (inactive) | > 100 µM (inactive) | > 100 µM (inactive) | > 100 µM (inactive) | > 100 µM (inactive) | 42.1 µM (inactive) | > 100 µM (inactive) | 38.2 µM (inactive) | > 100 µM (inactive) | > 100 µM (inactive) | > 100 µM (inactive) |
| O=C(C(Cl)=C(N1CCOCC1)N1CCOCC1)C(Cl)Cl | > 100 µM (inactive) | > 100 µM (inactive) | > 100 µM (inactive) | 56.9 µM (inactive) | > 100 µM (inactive) | > 100 µM | > 100 µM (inactive) | > 100 µM (inactive) | > 100 µM (inactive) | > 100 µM (inactive) | > 100 µM (inactive) | > 100 µM (inactive) | > 100 µM (inactive) | > 100 µM (inactive) | > 100 µM (inactive) | – | 34.5 µM (inactive) | – | > 100 µM (inactive) |
| O=C(O)c1cccc(S(=O)(=O)NN2C(=O)CSC2c2ccc(Cl)cc2Cl)c1 (stereo not drawn) | 16 µM (inactive) | > 100 µM (inactive) | > 100 µM (inactive) | 9.75 µM (inactive) | > 100 µM (inactive) | 30.2 µM | 32.5 µM (inactive) | 24.7 µM (inactive) | 35.4 µM (inactive) | 36.1 µM (inactive) | 15.4 µM (inactive) | 37.2 µM (inactive) | 19.5 µM (inactive) | > 100 µM (inactive) | 25.8 µM (inactive) | 30.2 µM (inactive) | 17.6 µM (inactive) | 21.4 µM (inactive) | > 100 µM (inactive) |
